Measurements reported in patent US7947852B2, “Naphthalene compounds, a process for their preparation and pharmaceutical compositions containing them” (Les Laboratoires Servier, priority 2007, dated 2011).

Assays:
MT2 receptor = biological target: T1, MT2 receptor (Homo sapiens, UniProt P49286); test: Melatonin MT2 receptor binding study; details: 2-[125I]-iodomelatonin radioligand, competitive binding
T1 sequence (P49286 1-362): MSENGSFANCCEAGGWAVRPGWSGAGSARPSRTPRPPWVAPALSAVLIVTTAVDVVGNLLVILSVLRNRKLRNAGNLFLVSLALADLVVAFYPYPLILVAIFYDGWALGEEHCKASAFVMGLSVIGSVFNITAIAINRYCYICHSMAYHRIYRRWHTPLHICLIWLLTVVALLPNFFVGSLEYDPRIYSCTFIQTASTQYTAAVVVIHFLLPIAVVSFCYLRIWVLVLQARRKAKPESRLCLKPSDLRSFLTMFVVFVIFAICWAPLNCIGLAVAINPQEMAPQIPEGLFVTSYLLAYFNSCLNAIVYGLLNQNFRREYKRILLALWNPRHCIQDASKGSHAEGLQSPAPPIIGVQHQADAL
Protocol: (§1) The MT1 or MT2 receptor binding experiments are carried out using 2-[^125I]-iodomelatonin as reference radioligand. The radioactivity retained is determined using a liquid scintillation counter.
(§2) Competitive binding experiments are then carried out in triplicate using the various test compounds. A range of different concentrations is tested for each compound. The results enable the binding affinities of the compounds tested (Ki) to be determined.

MT1 receptor = MT1 receptor (Homo sapiens, UniProt P48039); test: Melatonin MT1 receptor binding study; details: 2-[125I]-iodomelatonin radioligand, competitive binding
Sequence of MT1 receptor (P48039 whole entry): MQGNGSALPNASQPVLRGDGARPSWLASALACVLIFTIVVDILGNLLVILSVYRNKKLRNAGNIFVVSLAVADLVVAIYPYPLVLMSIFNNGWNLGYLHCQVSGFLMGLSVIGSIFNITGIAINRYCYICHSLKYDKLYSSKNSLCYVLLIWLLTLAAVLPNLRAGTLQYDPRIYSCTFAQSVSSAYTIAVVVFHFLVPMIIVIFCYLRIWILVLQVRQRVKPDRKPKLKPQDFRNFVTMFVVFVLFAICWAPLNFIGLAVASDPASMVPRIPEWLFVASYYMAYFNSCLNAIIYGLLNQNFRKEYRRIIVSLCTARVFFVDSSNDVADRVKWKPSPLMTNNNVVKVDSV
Protocol: as §1, §2

Compound `COc1ccc2cccc(/C(CNC(C)=O)=N\O)c2c1` [Example 2, N-[(2E)-2-(Hydroxyimino)-2-(7-methoxy-1-naphthyl)ethyl]acetamide] has a Ki (MT2 receptor) of 0.8 nM and a Ki (MT1 receptor) of 7 nM.
